Results reported in patent EP0186181A2, “Uses for enprostil” (SYNTEX (U.S.A.) INC., priority 1984, dated 1986).
Where two headings read alike, the source gives them in different places.

What was measured:
insulin levels = conditions: cited from earlier work
[1] = tested on: serum insulin and glucose; assay: Serum insulin and glucose after meal, double blind crossover study (Example V); format: in vivo, human; conditions: orally 30 minutes before meal
Method: A group of 10 subjects participated in a double blind crossover study. Either a placebo or enprostil was orally given 30 minutes before meal time and levels of insulin and glucose were measured after the meal.

[2] = tested on: serum insulin and glucose; assay: Eight-day crossover study with standard breakfast: serum glucose, insulin, GIP (Example VI); format: in vivo, human; conditions: 70 µg orally
Method: Eight healthy male subject received either 70 µg enprostil per day or placebo for eight days followed by a washout period of one week and a subsequent second eight-day administration during which they received the opposite drug regime.
On day 1 and day 8 of each study period the patients reported to the clinical studies unit fasting and were administered 70 µg of enprostil orally in a glass of water. Thirty minutes later they were administered a standard breakfast and blood samples were drawn at -30, just prior to enprostil administration, 0, at the time of enprostil administration, 15, 30, 60, 90, 120 and 180 minutes.

serum cholesterol [3] = assay: Cholesterol reduction study, 7 to 70 µg BID versus placebo (Example II, Table 1); format: in vivo, human
serum xylose = assay: Oral d-xylose absorption, 10-day placebo controlled cross-over (Example VII); format: in vivo, human; conditions: 70 µg enprostil per day, 5 g d-xylose orally
Method: (§1) 10 normal subjects participated in a 10-day placebo controlled cross-over receiving either placebo or […] enprostil per day. On day 1 and day 9 of each study phase they orally received 5 g of d-xylose, a sugar not normally metabolized in man. Blood measurements for serum xylose were made at -30, 0, +30, 60, 120, 180, 240, and 300 minutes following ingestion of xylose. On day 2 and day 10 of each study phase, the subjects received a 25 g intravenous glucose tolerance test, 30 minutes following enprostil administration.

[4] = tested on: serum cholesterol, LDL cholesterol, HDL cholesterol, apoproteins; assay: 9-day placebo controlled cross-over study in normal subjects: cholesterol, LDL, HDL, apoproteins (Table 2); format: in vivo, human; set-up: Mean reduction of cholesterol / Mean reduction of LDL cholesterol / Mean reduction of HDL cholesterol / Mean reduction of apoprotein A / Mean reduction of apoprotein B: concentration or dose not given beside the values; conditions: 9-day cross-over
Method: To further clarify the nature of these changes in a prospective manner, normal subjects were dosed with enprostil for periods ranging from 8 days up to 44 days in duration.
In a 9-day placebo controlled cross-over study, with each subject serving as their own control, the mean reduction in cholesterol, Low Density Lipoprotein (LDL) cholesterol, and High Density Lipoprotein (HDL) cholesterol are shown in Table 2.
These findings are surprising since the subjects in this study were normocholesterolemic at baseline (that is serum cholesterol under 250 mg/dl) and were on a free diet with no attempt to regulate dietary cholesterol intake.

serum cholesterol [5] = assay: Effect of orally administered enprostil on serum cholesterol, five weeks (Example I); format: in vivo, human
Method: A group of 20 patients with high cholesterol baseline were orally given 70 µg enprostil twice daily. […] The median change for the group was 16 percent reduction, with 60 percent of the patients tested showing a significant reduction in serum cholesterol.
A second group of 16 patients with a high cholesterol baseline were given 35 µg enprostil twice daily.
A third group of 13 individuals were given a placebo. […] The median change was a 2 percent increase in cholesterol.

serum glucose [6] = assay: Serum glucose after standard breakfast, study lasting up to 44 days (Example VIII); format: in vivo, human; conditions: 35 µg BID, standard breakfast 30 minutes after dose
Method: 20 subjects participated in a study lasting up to 44 days. On day -8, all 20 subjects received a placebo capsule followed 30 minutes later by a standard breakfast with serial blood measurements. Eight days later all 20 subjects were randomized to either enprostil […] BID or placebo and continued dosing for a period of 30 days. On days 1, 8, and 30, they were given enprostil followed 30 minutes later by a standard breakfast with serial blood measurements.

serum glucose [7] = assay: 25 g intravenous glucose tolerance test (Example VII); format: in vivo, human; conditions: 30 minutes following enprostil administration, day 2 and day 10
Method: as §1

serum GIP = assay: Serum GIP after meal stimulus, double blind crossover study (Example IV); format: in vivo, human; conditions: 70 µg orally 30 minutes before meal; placebo showed a four fold increase
Method: Serum GIP levels are known to increase after meals.
Groups of 10 subjects participated in a double blind, crossover study. Either the placebo or 70 µg enprostil was orally given 30 minutes before meal time and levels of GIP were measured.

serum cholesterol [8] = assay: 44 day dosing placebo controlled trial, serum cholesterol (Example III); format: in vivo, human
Method: In a 44 day dosing study 20 subject participated in a placebo controlled trial. Ten subjects received enprostil and the remainder received placebo. […] Similarly there was a 46% reduction in their LDL cholesterol from 140 mg/dl to 75 mg/dl. This subject was normocholesterolemic at baseline and no dietary manipulation was attempted.

[9] = administered by tube to the duodenum
[10] = normocholesterolemic subjects, free diet
[11] = 35 µg twice daily, of 16 patients
[12] = 70 µg twice daily, of 20 patients
[13] = of nine subjects who received enprostil
[14] = subject number 120, from 140 mg/dl

## CCCCC[C@](C)(O)/C=C/[C@H]1[C@H](O)CC(=O)[C@@H]1C/C=C\CCCC(=O)OC [15S, 15 methyl PGE2 methyl ester]
Insulin levels; [9]
  insulin levels: lowered insulin levels
  serum glucose levels: no change
Insulin levels; intraduodenally or intravenously
  time to peak serum glucose levels: no change
Insulin levels; intravenous administration
  glucose levels: without affecting glucose levels
  insulin levels: lowered insulin levels

## COC(=O)CCC=C=CC[C@H]1C(=O)C[C@@H](O)[C@@H]1/C=C/[C@@H](O)COc1ccccc1 [enprostil]
[1]
  raise in glucose levels after the meal: no statistically or clinically significant raise
[1]; placebo five fold
  increase of insulin levels after the meal: two
[2]; both study days
  serum GIP: essentially complete inhibition
[2]; day 1 and 8
  serum insulin concentrations for each time point: marked reduction
[2]; day 1 and day 8
  reduction of area under the serum glucose by time curve compared to the placebo phase: 15-20%
Serum cholesterol [3]; 7 µg BID, 9 subjects
  Cholesterol % decrease (combined 2-12 week of dosing): 67%
  Median % change (cholesterol): -11%
Serum cholesterol [3]; 35 µg BID, 28 subjects
  Cholesterol % decrease (combined 2-12 week of dosing): 64%
  Median % change (cholesterol): -13%
Serum cholesterol [3]; 70 µg BID, 28 subjects
  Cholesterol % decrease (combined 2-12 week of dosing): 64%
  Median % change (cholesterol): -17%
Serum xylose
  reduction in the amount of xylose excreted over 5 hours: 30%
Serum xylose; days 1 and 9
  peak serum xylose levels: marked suppression and delay
Serum xylose; versus 1.8g
  amount of xylose excreted over 5 hours: 1.3 g
[4]
  change in total triglycerides: essentially no change
[4]; [10]
  Mean reduction of HDL cholesterol: -9.2%
  Mean reduction of LDL cholesterol: -21.0%
  Mean reduction of apoprotein A: -1.8%
  Mean reduction of apoprotein B: -16.0%
  Mean reduction of cholesterol: -15.0%
Serum cholesterol [5]; 35 µg twice daily, 16 patients
  patients showing serum cholesterol reduction: 56%
Serum cholesterol [5]; 35 µg twice daily, 16 patients with high cholesterol baseline
  median change (reduction in serum cholesterol): eleven
Serum cholesterol [5]; [11]
  number of patients showing greater than 10 percent serum cholesterol reduction: eight
  number of patients showing greater than 25 percent reduction in serum cholesterol: one
  number of patients showing no change in serum cholesterol: seven
Serum cholesterol [5]; 70 µg twice daily orally, 20 patients
  patients tested showing a significant reduction in serum cholesterol: 60%
Serum cholesterol [5]; 70 µg twice daily orally, 20 patients with high cholesterol baseline
  median change for the group (reduction in serum cholesterol): 16%
Serum cholesterol [5]; [12]
  number of patients showing greater than 10 percent reduction in serum cholesterol: eleven
  number of patients showing greater than 25 percent reduction in serum cholesterol: one
  number of patients showing no change in serum cholesterol: eight
Serum glucose [6]
  peak blood glucose levels versus placebo: substantially reduced
Serum glucose [6]; delay from approximately 60 minutes
  time of appearance of peak blood glucose levels: ~90 min
Serum glucose [7]
  serum glucose by time curves following intravenous glucose administration, versus placebo: no marked differences
Serum GIP
  increase in serum GIP 60 minutes after the meal stimulus: no increase
Serum cholesterol [8]; [13]
  number of individuals with a reduction in total and LDL cholesterol throughout the entire 44 day period: Three
  number of subjects showing a reduction of total cholesterol by 16 days: Six
Serum cholesterol [8]; subject number 120, day 44 versus mean baseline of 208 mg/dl
  reduction of total serum cholesterol: 43%
Serum cholesterol [8]; [14]
  LDL cholesterol after dosing: 75 mg/dL
  reduction in LDL cholesterol: 46%
Serum cholesterol [8]; subject number 120, mean baseline 208 mg/dl
  total serum cholesterol at day 44: 123 mg/dL
